From article PMC7080406 (eLife, 2020)
“Also recorded” adds a separate entry of the source. Read-outs that look alike come from different tables or passages of the source.

Key:
5-HT1D = target: T1, 5-HT1D (Homo sapiens, UniProt P28221); assay: Off-target radioligand binding, 5-HT1D
T1 construct: expressed in transfected cells; host or cells: HEK293T, transient transfection (NIMH PDSP)
Protocol: (§1) The Radioligand binding assays were conducted by the NIMH Psychoactive Drug Screening Program (PDSP). The NIMH PDSP is directed by Bryan L. Roth, MD, PhD, at the University of North Carolina at Chapel Hill, North Carolina, and Program Officer Jamie Driscoll at NIMH, Bethesda, MD. Binding assay procedures and protocols are also available online at http://pdspdb.unc.edu/pdspWeb/?site=assays. […] Assay plates were sealed and incubated for 4 hr at 37°C in a humidified incubator until harvesting. Plates were harvested using vacuum filtration onto 0.3% polyethyleneimine pre-soaked 96-well Filtermat A (PerkinElmer) and washed three times with cold wash buffer (50 mM Tris, pH 7.4). Filters were dried and melted with a scintillation cocktail (Meltilex, PerkinElmer). Radioactivity was counted using a Wallac TriLux Microbeta counter (PerkinElmer). Results were analyzed using GraphPad Prism 7.0.

MT2 [1] = target: T2, MT2 (Homo sapiens, UniProt P49286); assay: [3H]melatonin competition radioligand binding, MT2 membranes; parameters: expressed in transfected cells; host or cells: HEK293T (ATCC CRL-11268), transient transfection; settings: read-out: MT2 pKi ± SEM (converted)
T2 sequence (P49286 1-362): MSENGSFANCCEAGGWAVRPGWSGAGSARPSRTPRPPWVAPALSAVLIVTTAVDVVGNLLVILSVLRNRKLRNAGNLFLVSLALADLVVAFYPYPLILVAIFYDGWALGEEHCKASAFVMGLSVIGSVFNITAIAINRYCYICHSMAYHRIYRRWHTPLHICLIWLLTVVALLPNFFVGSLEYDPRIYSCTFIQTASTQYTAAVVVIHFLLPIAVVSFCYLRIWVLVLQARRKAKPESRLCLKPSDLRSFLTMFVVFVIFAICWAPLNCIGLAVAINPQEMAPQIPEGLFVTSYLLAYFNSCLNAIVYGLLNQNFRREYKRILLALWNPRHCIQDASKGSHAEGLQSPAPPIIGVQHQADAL
Protocol: as §1

[2] = target: T3, MT1 Y281F mutant receptor (Homo sapiens, UniProt P48039, Y281F); assay: Tango β-arrestin recruitment assay, MT1 Y281F mutant; type: cell-based
T3 construct: expressed in transfected cells; host or cells: HTLA cells (HEKT based)
T3 sequence (P48039 whole entry Y281F): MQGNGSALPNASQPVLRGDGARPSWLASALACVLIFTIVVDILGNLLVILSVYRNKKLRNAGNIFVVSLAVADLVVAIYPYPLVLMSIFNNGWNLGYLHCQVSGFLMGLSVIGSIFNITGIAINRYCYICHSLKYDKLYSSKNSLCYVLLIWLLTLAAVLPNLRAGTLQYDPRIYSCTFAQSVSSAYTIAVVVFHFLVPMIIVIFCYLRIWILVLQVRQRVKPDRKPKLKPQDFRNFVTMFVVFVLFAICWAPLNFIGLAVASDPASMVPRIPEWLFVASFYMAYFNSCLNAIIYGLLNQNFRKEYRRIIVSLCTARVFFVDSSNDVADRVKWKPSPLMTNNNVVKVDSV
Protocol: (§2) In brief, HTLA cells were transiently transfected with receptor TANGO DNA constructs overnight in DMEM with 10% FBS. Transfected cells were then plated into poly-L-Lys coated 384-well plates using DMEM supplemented with 1% dialyzed FBS. After 6 hr incubation, drug dilutions, prepared in DMEM with 1% dFBS, were added for incubation overnight (16–20 hr). Medium and drug solutions were removed, Bright-Glo reagent (20 uL/well) was added for luminescence counting 20 min later. Results were analyzed in GraphPad Prism 7.0.

5-HT7A = target: T4, 5-HT7A (Homo sapiens, UniProt P34969); assay: Gs-mediated cAMP production assay (GloSensor); type: cell-based; settings: weak partial agonist; receptor not given
T4 construct: expressed in transfected cells; host or cells: HEK293T, transient transfection (NIMH PDSP)
T4 sequence (P34969 1-445 isoform P34969-2): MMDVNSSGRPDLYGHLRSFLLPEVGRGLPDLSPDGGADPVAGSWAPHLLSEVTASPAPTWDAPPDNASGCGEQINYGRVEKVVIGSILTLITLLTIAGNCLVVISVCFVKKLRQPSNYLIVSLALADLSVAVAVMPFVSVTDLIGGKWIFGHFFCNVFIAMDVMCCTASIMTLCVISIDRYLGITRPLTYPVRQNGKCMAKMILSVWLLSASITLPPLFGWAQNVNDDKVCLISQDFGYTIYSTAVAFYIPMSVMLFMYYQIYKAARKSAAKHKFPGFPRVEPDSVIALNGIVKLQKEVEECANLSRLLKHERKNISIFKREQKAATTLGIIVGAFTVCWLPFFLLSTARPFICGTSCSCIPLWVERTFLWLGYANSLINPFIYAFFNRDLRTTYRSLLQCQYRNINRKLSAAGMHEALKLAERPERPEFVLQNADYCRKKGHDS

MT1 wildtype (WT) = target: T5, MT1 wildtype (WT) (Homo sapiens, UniProt P48039); assay: Tango β-arrestin recruitment assay, MT1 wildtype; type: cell-based; settings: normalized individually (basal 0%, maximum 100%); mean ± SEM, minimum of 3 assays; read-out: pEC50, Tango, MT1 WT (converted)
T5 construct: host or cells: HTLA cells (HEKT based)
T5 sequence (P48039 whole entry): as the sequence (P48039 whole entry Y281F) above, with F281Y counted along it
Protocol: as §2

MT1 = target: T6, MT1 (Homo sapiens, UniProt P48039); assay: GloSensor Gi/o-mediated cAMP production inhibition assay, MT1; type: cell-based; settings: for EC50: Gi/o mediated
T6 construct: expressed in transfected cells; host or cells: HEK293T (ATCC CRL-11268), transient transfection
T6 sequence (P48039 whole entry): as the sequence (P48039 whole entry Y281F) above, with F281Y counted along it
Protocol: Briefly, HEK293 T cells (as above) were transiently co-transfected with receptor (MT1 or MT2) and GloSensor cAMP (Promega) plasmids overnight, plated in Poly-L-Lysine coated 384-well white clear bottom plates in DMEM + 1% dialyzed FBS. Cells were used for assays at a minimum of 6 hr after plating. Culture medium was first removed and cells were stimulated with drugs in assay buffer (1x HBSS, 20 mM HEPES, 1 mg/ml BSA, 0.1 mg/ml ascorbic acid, pH 7.4) for 15 min at room temperature (this and all the following steps), followed by addition of a mixture of isoproterenol (final of 100 nM) and luciferin (final of 1 mM) for Gi/o-cAMP production inhibition assays and luciferin (final of 1 mM) for Gs-cAMP production assays. The plates were counted for luminescence after 25 min in a luminescence plate reader. Results were analyzed using GraphPad Prism 7.0.

MT2 [3] = target: T2, MT2; assay: Tango β-arrestin recruitment assay, MT2; type: cell-based; parameters: expressed in transfected cells; transient transfection; settings: result in words; compared to G-protein
Protocol: as §2, with “Tango arrestin recruitment assays were carried out according to the previously published procedure [Kroeze et al. (2015)]. In” for “In”

5-HT1A = target: T7, 5-HT1A (Homo sapiens, UniProt P08908); assay: Off-target radioligand binding, 5-HT1A
T7 construct: expressed in transfected cells; host or cells: HEK293T, transient transfection (NIMH PDSP)
T7 sequence (P08908 1-422): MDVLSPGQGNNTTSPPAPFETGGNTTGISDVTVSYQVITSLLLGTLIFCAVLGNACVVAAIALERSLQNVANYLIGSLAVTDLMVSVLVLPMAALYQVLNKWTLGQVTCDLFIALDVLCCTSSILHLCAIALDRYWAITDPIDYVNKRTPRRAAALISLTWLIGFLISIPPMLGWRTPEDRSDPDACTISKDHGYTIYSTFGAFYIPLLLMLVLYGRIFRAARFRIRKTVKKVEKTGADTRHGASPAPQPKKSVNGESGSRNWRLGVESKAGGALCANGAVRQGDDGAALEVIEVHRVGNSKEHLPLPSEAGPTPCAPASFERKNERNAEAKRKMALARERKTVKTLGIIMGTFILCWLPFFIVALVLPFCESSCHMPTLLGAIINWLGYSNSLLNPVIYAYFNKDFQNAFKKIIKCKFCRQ
Protocol: as §1

[4] = target: T8, MT1 N162Q mutant receptor (Homo sapiens, UniProt P48039, N162Q); assay: Tango β-arrestin recruitment assay, MT1 N162Q mutant; type: cell-based; settings: normalized individually (basal 0%, maximum 100%); mean ± SEM, minimum of 3 assays; read-out: pEC50, Tango, MT1 N162Q (converted)
T8 construct: expressed in transfected cells; host or cells: HTLA cells (HEKT based)
T8 sequence (P48039 whole entry N162Q): as the sequence (P48039 whole entry Y281F) above, with N162Q, F281Y counted along it
Protocol: as §2

T1 sequence (P28221 whole entry, species assumed): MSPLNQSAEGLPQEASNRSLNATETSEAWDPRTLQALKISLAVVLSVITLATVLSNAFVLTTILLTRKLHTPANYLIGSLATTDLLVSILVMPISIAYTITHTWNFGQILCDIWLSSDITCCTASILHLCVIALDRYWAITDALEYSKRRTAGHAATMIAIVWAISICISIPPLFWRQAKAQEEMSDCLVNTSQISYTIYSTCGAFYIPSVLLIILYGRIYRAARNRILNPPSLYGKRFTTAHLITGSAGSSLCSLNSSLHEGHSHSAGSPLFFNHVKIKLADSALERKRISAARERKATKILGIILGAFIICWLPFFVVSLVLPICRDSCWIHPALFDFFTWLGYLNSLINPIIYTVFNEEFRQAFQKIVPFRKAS

Compound: COc1ccc2[nH]cc(CCNC(N)=O)c2c1 [Compound 28, [2-(5-methoxy-1H-indol-3-yl)ethyl]urea]
- inhibition at 10 µM (5-HT1D; 10 μM): > 50%
- Ki (5-HT1D; read-out: pKi, 5-HT1D (converted)): 1510 nM
- Ki (MT2 [1]): 23.4 nM
- reduction of potency, MT1 Y281F versus WT ([2]; Tango): > 100 fold
- EC50 ([2]; normalized individually (basal 0%, maximum 100%), mean ± SEM, minimum of 3 assays, read-out: pEC50, Tango, MT1 Y281F (converted)): 4680 nM
- EC50 (5-HT7A): 1820 nM
- EC50 (MT1 wildtype (WT)): 22.9 nM
- EC50 (MT1; SEM, N = 3, read-out: MT1 pEC50 ± SEM (converted)): 0.0407 nM
- EC50 (MT1; read-out: MT1 EC50): 0.04 nM
- MT1 LE (MT1; ligand efficiency (based on EC50)): 0.86 kcal/mol per non-hydrogen atom
- Emax (MT1; read-out: MT1 Emax ± SEM): 95.3 ± 2.6%
- β-arrestin signaling / arrestin recruitment at MT2 (MT2 [3]): dramatically reduced arrestin recruitment; also recorded: marked reduction in β-arrestin signaling compared to G-protein
- inhibition at 10 µM (5-HT1A; 10 μM): > 50%
- Ki (5-HT1A; read-out: pKi, 5-HT1A (converted)): 851 nM
- EC50 [4]: 468 nM
